Measurements from patent US20150344457A1, “METHODS OF INHIBITING PRMT5” (EPIZYME, INC., priority 2012, published 2015).
Read-outs that look alike come from different tables or passages of the source.

Target: T1, PRMT5/MEP50 (Homo sapiens, UniProt O14744)
T1 construct: Expressed full-length human Flag-PRMT5/6His-MeP50 protein complex was purified; made in house; host or cells: Spodoptera frugiperda (SF9) insect cells, baculovirus (pDEST8)
Assay: PRMT5 Biochemical Assay (PRMT5/MEP50 enzyme assay on peptide substrate, 3H-SAM Flashplate)
Settings: read-out: Biochemical IC50
Description: S-adenosylmethionine (SAM), S-adenosylhomocysteine (SAH), bicine, KCl, Tween20, dimethylsulfoxide (DMSO), bovine skin gelatin (BSG), and Tris(2-carboxyethyl)phosphine hydrochloride solution (TCEP) were purchased from Sigma-Aldrich at the highest level of purity possible. ^3H-SAM was purchase from American Radiolabeled Chemicals with a specific activity of 80 Ci/mmol 384-well streptavidin Flashplates were purchased from PerkinElmer.
Peptide representative of human histone H4 residues 1-15 was synthesized with a C-terminal linker-affinity tag motif and a C-terminal amide cap by 21st Century Biochemicals. […] The sequence was Ac-[…][K-Biot]-amide (SEQ ID NO.:3).
Full-length human MEP50 (NM_024102) clone was amplified from a human testis cDNA library incorporating a 5′ sequence encoding a 6-histidine tag (MHHHHHH) (SEQ ID NO.:5) fused directly to Arg 2 of MEP50. The amplified genes were sublconed into pENTR/D/TEV (Life Technologies) and subsequently transferred by Gateway™ attL×attR recombination to pDEST8 baculvirus expression vector (Life Technologies).
Recombinant baculovirus and Baculovirus-Infected Insect Cells (BIIC) were generated according to Bac-to-Bac kit instructions (Life Technologies) and Wasilko, 2006, respectively. Protein over-expression was accomplished by infecting exponentially growing Spodoptera frugiperda (SF9) cell culture at 1.2×10^6 cell/ml with a 5000 fold dilution of BIIC stock. Infections were carried out at 27° C. for 72 hours, harvested by centrifugation, and stored at −80° C. for purification.
Flag-PRMT5/6His-MeP50 was eluted with 300 mM Imidazole in the same buffer. […] Reference: Wasilko, D. J. and S. E. Lee: “TIPS: titerless infected-cells preservation and scale-up” Bioprocess J., 5 (2006), pp. 29-32.
General Procedure for PRMT5/MEP50 Enzyme Assays on Peptide Substrates.
The assays were all performed in a buffer consisting of 20 mM Bicine (pH=7.6), 1 mM TCEP, 0.005% BSG, and 0.002% Tween20, prepared on the day of use. Compounds in 100% DMSO (1 ul) were spotted into a polypropylene 384-well V-bottom plates (Greiner) using a Platemate Plus outfitted with a 384-channel head (Thermo Scientific). DMSO (1 ul) was added to Columns 11, 12, 23, 24, rows A-H for the maximum signal control and 1 ul of SAH, a known product and inhibitor of PRMT5/MEP50, was added to columns 11, 12, 23, 24, rows I-P for the minimum signal control. A cocktail (40 ul) containing the PRMT5/MEP50 enzyme and the peptide was added by Multidrop Combi (Thermo-Fisher). The compounds were allowed to incubate with PRMT5/MEP50 for 30 min at 25 degrees Celsius, then a cocktail (10 ul) containing ^3H-SAM was added to initiate the reaction (final volume=51 ul). The final concentrations of the components were as follows: PRMT5/MEP50 was 4 nM, ^3H-SAM was 75 nM, peptide was 40 nM, SAH in the minimum signal control wells was 100 uM, and the DMSO concentration was 1%. The assays were stopped by the addition of non-radioactive SAM (10 ul) to a final concentration of 600 uM, which dilutes the ^3H-SAM to a level where its incorporation into the peptide substrate is no longer detectable. 50 ul of the reaction in the 384-well polypropylene plate was then transferred to a 384-well Flashplate and the biotinylated peptides were allowed to bind to the streptavidin surface for at least 1 hour before being washed three times with 0.1% Tween20 in a Biotek ELx405 plate washer. The plates were then read in a PerkinElmer TopCount plate reader to measure the quantity of ^3H-labeled peptide bound to the Flashplate surface, measured as disintegrations per minute (dpm) or alternatively, referred to as counts per minute (cpm).
where dpm=disintegrations per minute, cmpd=signal in assay well, and min and max are the respective minimum and maximum signal controls.
where top and bottom are the normally allowed to float, but may be fixed at 100 or 0 respectively in a 3-parameter fit.

[1] = Table B-2, PRMT5/MEP50 4 nM, 3H-SAM 75 nM, peptide 40 nM
[2] = PRMT5 biochemical assay, Table C-2

T1 sequence (O14744 with tags, fused parts or gaps): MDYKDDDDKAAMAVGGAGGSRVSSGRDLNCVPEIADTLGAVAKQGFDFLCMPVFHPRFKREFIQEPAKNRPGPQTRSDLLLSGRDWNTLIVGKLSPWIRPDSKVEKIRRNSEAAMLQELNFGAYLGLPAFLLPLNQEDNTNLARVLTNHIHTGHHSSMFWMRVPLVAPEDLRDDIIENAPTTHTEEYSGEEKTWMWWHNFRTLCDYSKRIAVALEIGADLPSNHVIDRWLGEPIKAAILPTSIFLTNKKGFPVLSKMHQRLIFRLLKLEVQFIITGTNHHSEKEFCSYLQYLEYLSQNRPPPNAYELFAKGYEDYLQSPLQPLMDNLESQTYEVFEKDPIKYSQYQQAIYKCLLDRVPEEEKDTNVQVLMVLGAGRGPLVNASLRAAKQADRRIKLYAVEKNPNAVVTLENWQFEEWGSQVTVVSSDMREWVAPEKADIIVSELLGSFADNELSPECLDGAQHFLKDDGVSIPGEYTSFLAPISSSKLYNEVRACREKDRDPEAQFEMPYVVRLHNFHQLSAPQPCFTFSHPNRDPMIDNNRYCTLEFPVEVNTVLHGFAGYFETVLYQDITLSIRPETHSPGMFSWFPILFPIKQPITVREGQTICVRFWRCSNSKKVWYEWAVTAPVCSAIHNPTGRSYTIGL
T1 sequence (Q9BQA1 with tags, fused parts or gaps partner limits assumed): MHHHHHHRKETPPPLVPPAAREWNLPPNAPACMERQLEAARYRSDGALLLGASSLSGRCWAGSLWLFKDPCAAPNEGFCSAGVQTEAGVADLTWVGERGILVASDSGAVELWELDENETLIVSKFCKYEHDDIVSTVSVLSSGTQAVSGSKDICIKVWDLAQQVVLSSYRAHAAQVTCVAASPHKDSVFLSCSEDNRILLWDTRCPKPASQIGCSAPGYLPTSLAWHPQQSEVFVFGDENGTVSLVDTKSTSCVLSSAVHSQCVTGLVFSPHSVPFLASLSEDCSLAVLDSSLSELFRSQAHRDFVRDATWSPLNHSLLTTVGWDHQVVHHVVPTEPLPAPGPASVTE

SMILES: O=C(NCC(O)CN1CCc2ccccc2C1)c1cccc(CN2CCNCC2)c1 (centres unmarked) [Compound B29.]
- IC50 [1]: < 100 nM

SMILES: CN1CCN(Cc2cccc(C(=O)NCC(O)CN3CCc4ccccc4C3)c2)CC1 (centres unmarked) [Compound B30.]
- IC50 [1]: < 100 nM

SMILES: CS(=O)(=O)Nc1ccc(C(=O)NCC(O)CN2CCc3ccccc3C2)cc1 (centres unmarked) [Compound B31.]
- IC50 [1]: 101 to 1000 nM

SMILES: NS(=O)(=O)c1cccc(C(=O)NCC(O)CN2CCc3ccccc3C2)c1 (centres unmarked) [Compound B32.]
- IC50 [1]: 101 to 1000 nM

SMILES: NS(=O)(=O)c1ccccc1C(=O)NCC(O)CN1CCc2ccccc2C1 (centres unmarked) [Compound B33.]
- IC50 [1]: 1000 to 10000 nM

SMILES: CN1CCCC1c1cccc(C(=O)NCC(O)CN2CCc3ccccc3C2)c1 (centres unmarked) [Compound B34.]
- IC50 [1]: < 100 nM

SMILES: O=C(NCC(O)CN1CCc2ccccc2C1)c1cccc(N2CCNCC2)c1 (centres unmarked) [Compound B35.]
- IC50 [1]: < 100 nM

SMILES: CN1CCN(c2cccc(C(=O)NCC(O)CN3CCc4ccccc4C3)c2)CC1 (centres unmarked) [Compound B36.]
- IC50 [1]: < 100 nM

SMILES: O=C(NCC(O)CN1CCc2ccccc2C1)c1cccc(C2CCNC2)c1 (centres unmarked) [Compound B37.]
- IC50 [1]: < 100 nM

SMILES: CN1CCC(c2cccc(C(=O)NCC(O)CN3CCc4ccccc4C3)c2)C1 (centres unmarked) [Compound B38.]
- IC50 [1]: < 100 nM

SMILES: CNCCOc1cccc(C(=O)NCC(O)CN2CCc3ccccc3C2)c1 (centres unmarked) [Compound B39.]
- IC50 [1]: 101 to 1000 nM

SMILES: Cc1c(NC2CCOCC2)cccc1C(=O)NCC(O)CN1CCc2ccccc2C1 (centres unmarked) [Compound B40.]
- IC50 [1]: < 100 nM

SMILES: CCN(c1cccc(C(=O)NCC(O)CN2CCc3ccccc3C2)c1C)C1CCOCC1 (centres unmarked) [Compound B41.]
- IC50 [1]: < 100 nM

SMILES: O=C(NCC(O)CN1CCc2ccccc2C1)c1cccc(C2CCCN2)c1 (centres unmarked) [Compound B42.]
- IC50 [1]: 101 to 1000 nM

SMILES: O=C(NC[C@@H](O)CN1CCc2ccccc2C1)c1cccc(NC2CCOCC2)c1 [Compound B43.]
- IC50 [1]: 101 to 1000 nM

SMILES: O=C(NC[C@H](O)CN1CCc2ccccc2C1)c1cccc(NC2CCOCC2)c1 [Compound B44.]
- IC50 [1]: < 100 nM

SMILES: O=C(NCC(O)CN1CCc2ccccc2C1)c1cccc(NC2CCOC2)c1 (centres unmarked) [Compound B45.]
- IC50 [1]: < 100 nM

SMILES: O=C(NCC(O)CN1CCc2ccccc2C1)c1cccc(C(=O)N2CCOCC2)c1 (centres unmarked) [Compound B46.]
- IC50 [1]: 1000 to 10000 nM

SMILES: CCN(c1cccc(C(=O)NCC(O)CN2CCc3ccccc3C2)c1)C1CCOCC1 (centres unmarked) [Compound B47.]
- IC50 [1]: 101 to 1000 nM

SMILES: O=C(NCC(O)CN1CCc2ccccc2C1)c1cccc(OC2CCOCC2)c1 (centres unmarked) [Compound B48.]
- IC50 [1]: 101 to 1000 nM

SMILES: CN(c1cccc(C(=O)NCC(O)CN2CCc3ccccc3C2)c1)C1CCOCC1 (centres unmarked) [Compound B49.]
- IC50 [1]: 101 to 1000 nM

SMILES: O=C(NCC(O)CN1CCc2ccccc2C1)c1cccc(NC2COC2)c1 (centres unmarked) [Compound B50.]
- IC50 [1]: 101 to 1000 nM

SMILES: O=C(NCC(O)CN1CCc2ccccc2C1)c1cccc(CN2CCOCC2)c1 (centres unmarked) [Compound B51.]
- IC50 [1]: 101 to 1000 nM

SMILES: CC(Nc1cccc(C(=O)NCC(O)CN2CCc3ccccc3C2)c1)C1CCOCC1 (centres unmarked) [Compound B52.]
- IC50 [1]: 101 to 1000 nM

SMILES: CC1(C)CC(Nc2cccc(C(=O)NCC(O)CN3CCc4ccccc4C3)c2)CCO1 (centres unmarked) [Compound B53.]
- IC50 [1]: 101 to 1000 nM

SMILES: O=C(NCC(O)CN1CCc2ccccc2C1)c1cncc(NC2CCOCC2)c1 (centres unmarked) [Compound B54.]
- IC50 [1]: < 100 nM

SMILES: O=C(NCC(O)CN1CCc2ccccc2C1)c1cc(NC2CCOCC2)ccn1 (centres unmarked) [Compound B55.]
- IC50 [1]: < 100 nM

SMILES: COc1cc(NC2CCOCC2)cc(C(=O)NCC(O)CN2CCc3ccccc3C2)c1 (centres unmarked) [Compound B56.]
- IC50 [1]: 101 to 1000 nM

SMILES: O=C(NCC(O)CN1CCc2ccccc2C1)c1cc(NC2CCOCC2)ccc1F (centres unmarked) [Compound B57.]
- IC50 [1]: 101 to 1000 nM

SMILES: O=C(NCC(O)CN1CCc2ccccc2C1)c1ccc(OC2CCOCC2)cc1 (centres unmarked) [Compound B58.]
- IC50 [1]: < 100 nM

SMILES: O=C1Cc2ccccc2N1CC(O)CN1CCc2ccccc2C1 (centres unmarked) [Compound C1]
- IC50 [2]: 101 to 1000 nM

SMILES: O=c1cccc(CC(O)CN2CCc3ccccc3C2)[nH]1 (centres unmarked) [Compound C2]
- IC50 [2]: 10000 to 50000 nM

SMILES: Cc1cccc(N2CCN(CC(O)CN3CCc4ccccc4C3)C(=O)C2)c1 (centres unmarked) [Compound C3]
- IC50 [2]: 10000 to 50000 nM

SMILES: O=C1CN(c2cccc3cccnc23)CCN1CC(O)CN1CCc2ccccc2C1 (centres unmarked) [Compound C4]
- IC50 [2]: < 100 nM

SMILES: O=C1CN(c2cccc(Cl)c2)CCN1CC(O)CN1CCc2ccccc2C1 (centres unmarked) [Compound C5]
- IC50 [2]: < 100 nM
